Columns and labels:
Type in all cases: in vivo
[1] = test system: cotton aphid (CA) Aphis gossypii; assay: Cotton aphid track-sprayer test on cotton: Compound A or imidacloprid with glufosinate (Liberty) and AMS (Example XVII); settings: AMS 18 mg/ml, no insecticide, no glufosinate
Description: (§1) Glyphosate resistant cotton plants (Gossypium hirsutum, cv ‘DP493’) were trimmed to 1 true leaf and infested with mixed stages of cotton aphid (CA) Aphis gossypii 24 h prior to application. Mixed developmental stage CA were infested onto the upper surface of each treated leaf by transferring infested foliage from an insectary colony. Each plant was infested with approximately equal numbers of CA based on visual estimation of aphid density on the infested material. Infested plants were held in the growth chamber (L:D 16:8 and 25° C.). Glufosinate (Liberty®, Bayer CropScience, Monheim am Rhein, Germany) was mixed with water at a rate equivalent to 5 ml/L (0.4 qt/Ac). […] High rate Compound A concentrations were created by diluting Compound A technical material with acetone to achieve a 10 ppm solution. […] […] […] Nozzle height above the canopy was held constant at ca. 30 cm. Plants were evaluated after 3 days from the time of infestation by counting all live cotton aphids on each plant.
TABLE 6 contains the calculated Colby values for combinations of treatments as well as the outcome of statistical evaluations between predicted (Colby) and actual measured values. These T-test statistics were only calculated for the 0.2 and 0.05 g/Ha rates. […] These same trends were apparent when Compound A was applied with both glufosinate and AMS.

[2] = test system: cotton aphid (CA) Aphis gossypii; assay: Cotton aphid track-sprayer test on cotton: Compound A or imidacloprid with Durango (glyphosate) or Durango Blank and AMS (Example XVI); settings: average of 5 reps
Description: as §1, with “C.). Glyphosate (Durango®, Dow AgroSciences, LLC, Indianapolis, Ind.)” for “C.). Glufosinate (Liberty®, Bayer CropScience, Monheim am Rhein, Germany)”, “to 15” for “to 5”, “ml/L (1.2” for “ml/L (0.4”, “qt/Ac). […] A glyphosate free formulation of Durango® was prepared using these same mixing instructions.” for “qt/Ac).”
[…] Percent control for all treatments was calculated using the rep average for the untreated plants.

[3] = test system: cotton aphid (CA) Aphis gossypii; assay: Cotton aphid track-sprayer test on cotton: Compound A with glufosinate (Liberty) and AMS, rates 0.4, 0.1 and 0.025 g/Ha (Example XVIII); settings: AMS 18 g/L, no insecticide, no Lib.
Description: as §1, with “24 hours” for “24 h”, “a 20” for “a 10”

## N.N.O=S(=O)(O)O [AMS, ammonium sulfate]
[1]
  % control AVE: 4.5%
[2]; AMS 18 g/L alone, 0 g insecticide/Ha, block of Durango treatments
  % control Ave: −7.0%
[2]; AMS 18 g/L alone, no insecticide, block of Durango Blank treatments
  % control Ave: 13.3%
[2]; AMS 18 g/L with Durango Blank 0.015 ml/ml, no insecticide
  % control Ave: 26.5%
[3]
  % Control (Negatives to zero) Ave: 13.2%

Reference: patent US20130288897A1, “SYNERGISTIC PESTICIDAL COMPOSITIONS” (Dow AgroSciences LLC, priority 2012, published 2013)
